Article PMC6315844, “Two Novel Multi-Functional Peptides from Meat and Visceral Mass of Marine Snail Neptunea arthritica cumingii and Their Activities In Vitro and In Vivo” (Marine Drugs, 2018)
No end group written: not given here.

Key:
[1] = molecular target: T1, angiotensin-converting enzyme (from the rabbit lung) (Oryctolagus cuniculus, UniProt P12822); assay: ACE-inhibitory activity; assay type: biochemical; settings: for ACE-Inhibitory Activity (%): fractions purified from M-F and VM-F using HILIC, all at the same concentration (not given), n = 3, mean ± SD; for EC50: natural purified peptide, Figure 3a, tests repeated three times, read-out: EC50 values of active peptides: ACE
T1 construct: angiotensin-converting enzyme (0.25 U·mL^−1, from the rabbit lung); purchased Sigma-Aldrich (Shanghai, China); host or cells: rabbit lung (tissue-derived)
T1 sequence (P12822 34-1310): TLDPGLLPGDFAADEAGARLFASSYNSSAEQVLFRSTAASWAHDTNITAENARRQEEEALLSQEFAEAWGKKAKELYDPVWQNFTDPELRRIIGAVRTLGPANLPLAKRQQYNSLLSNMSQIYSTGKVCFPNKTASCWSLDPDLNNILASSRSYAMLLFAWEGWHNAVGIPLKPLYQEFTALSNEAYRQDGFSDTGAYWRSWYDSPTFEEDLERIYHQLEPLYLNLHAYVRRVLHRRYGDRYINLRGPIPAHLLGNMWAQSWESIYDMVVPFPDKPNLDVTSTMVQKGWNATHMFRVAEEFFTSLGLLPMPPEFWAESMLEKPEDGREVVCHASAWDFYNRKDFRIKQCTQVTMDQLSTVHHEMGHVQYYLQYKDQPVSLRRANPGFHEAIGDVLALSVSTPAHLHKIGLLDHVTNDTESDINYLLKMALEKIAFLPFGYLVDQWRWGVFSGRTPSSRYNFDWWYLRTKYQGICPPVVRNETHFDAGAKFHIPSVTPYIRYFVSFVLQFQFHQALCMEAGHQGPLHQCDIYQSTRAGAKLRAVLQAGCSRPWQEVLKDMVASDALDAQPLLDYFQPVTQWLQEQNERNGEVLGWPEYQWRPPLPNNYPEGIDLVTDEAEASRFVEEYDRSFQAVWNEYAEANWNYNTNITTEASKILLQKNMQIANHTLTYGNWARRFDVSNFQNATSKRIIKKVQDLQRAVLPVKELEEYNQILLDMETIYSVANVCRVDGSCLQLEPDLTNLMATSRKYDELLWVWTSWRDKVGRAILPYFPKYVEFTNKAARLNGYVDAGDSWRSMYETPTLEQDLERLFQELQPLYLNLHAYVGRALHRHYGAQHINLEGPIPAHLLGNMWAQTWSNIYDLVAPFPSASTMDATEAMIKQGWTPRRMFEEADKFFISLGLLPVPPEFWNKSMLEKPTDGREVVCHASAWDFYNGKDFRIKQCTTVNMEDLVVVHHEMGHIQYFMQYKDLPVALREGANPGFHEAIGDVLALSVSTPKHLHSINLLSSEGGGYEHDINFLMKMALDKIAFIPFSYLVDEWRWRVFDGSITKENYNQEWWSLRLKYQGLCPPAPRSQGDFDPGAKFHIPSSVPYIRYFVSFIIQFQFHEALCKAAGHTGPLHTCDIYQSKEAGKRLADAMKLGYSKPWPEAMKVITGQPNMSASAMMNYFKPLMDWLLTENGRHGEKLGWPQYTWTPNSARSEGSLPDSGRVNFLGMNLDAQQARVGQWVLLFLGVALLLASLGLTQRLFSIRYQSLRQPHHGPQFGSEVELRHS
Description: (§1) DPPH, angiotensin-converting enzyme (0.25 U·mL^−1, from the rabbit lung), N-hippuryl-His-Leu hydrate (HHL), hippuric acid, and amino acid standards were purchased from Sigma-Aldrich (Shanghai, China). α-Glucosidase protease (50 U/mg, from yeast), α-amylase protease (50 U/mg, from Bacillus subtilis), acarbose, 4-nitrophenyl-β-D-galactopyranoside, 6-aminoquinolyl-N-hydroxysuccinimidyl carbamate (AQC), ribonuclease (13,700 Da, from the bovine pancreas), aprotinin hydrochloride (6511 Da, from the bovine lung), angiotensin II (1046 Da), and L-serine (105 Da) were purchased from Yuanye Biological Technology Co. (Shanghai, China). Trypsin (250 U/mg), pepsin (250 U/mg), Sephadex G25 gel, nifedipine, and vitamin C were purchased from Solarbio (Beijing, China). Transgenic zebrafish Tg (krt4:NTR-hKikGR)^cy17 are maintained in our lab. All chemicals and reagents used for HPLC were of chromatographic grade and other chemicals and reagents were of analytical grade.
ACE-inhibitory activity was measured according to the methods of Chen et al.. Nifedipine was used as a positive control. Results were reported as EC50 values.

[2] = test system: α-amylase (from Bacillus subtilis); assay: α-Amylase inhibitory activity; assay type: biochemical; settings: for α-Amylase Inhibitory Activity (%): fractions purified from M-F and VM-F using HILIC, all at the same concentration (not given), n = 3, mean ± SD; for EC50: natural purified peptide, Figure 3a, tests repeated three times, read-out: EC50 values of active peptides: α-amylase
Description: as §1
(§2) α-Amylase and α-glucosidase inhibitory activities were assayed as described by Uraipong et al.. Acarbose was used as a positive control. The inhibitory activity of active peptides was expressed as the EC50 value.

[3] = molecular target: α-glucosidase (from yeast); assay: α-Glucosidase inhibitory activity; assay type: biochemical; settings: natural purified peptide; Figure 3a; tests repeated three times; read-out: EC50 values of active peptides: α-glucosidase
Description: as §1, §2

[4] = test system: Tg (krt4:NTR-hKikGR)cy17 zebrafish; assay: In vivo antioxidant activity in MTZ-treated transgenic zebrafish embryos (skin fluorescent spots); design: species or system zebrafish (Danio rerio); settings: 10 mM MTZ, 24 h, 28 °C, n = 10
Description: For Tg (krt4:NTR-hKikGR)^cy17 zebrafish, MTZ treatment can lead to ROS overproduction, apoptosis of skin cells, and reduction of fluorescence spots on skin; thus, this model is used to assess ROS scavenging capacity of sample by measuring the growth rate of fluorescent spots (FS) on the skin of Tg (krt4:NTR-hKikGR)^cy17 transgenic zebrafish. Sample with antioxidant activity can remove ROS from transgenic zebrafish and prevent the skin cell apoptosis.
The number of fluorescence spots on the skin will increase after incubation with antioxidant. Thus, we can evaluate the ROS scavenging ability of samples on the basis of changes in the number of fluorescence spots compared with the MTZ-treatment. The in vivo antioxidant activity of the active peptides was evaluated according to previously described methods with some modification using the transgenic zebrafish line Tg (krt4:NTR-hKikGR)^cy17. Twenty-four-hour-old transgenic zebrafish embryos were added to 24-well cell culture plates (10 embryos/well) and incubated with 2 mL of 10 mM MTZ (dissolved in fish water) and active peptides for 24 h at 28 °C. […] After incubation, zebrafish embryos were anesthetized with tricaine (0.16%, w/v), and fluorescence was observed using an FSX100 Bio Imaging Navigator instrument. FS were counted using ImagePro-Plus, and the in vivo antioxidant activity (%) of active peptides was determined by Equation 1. […]

[5] = Thermal stability of synthetic peptides (DPPH and ACE activity retained); assay type: physicochemical; settings: incubated at 20, 40, 60 and 80 °C, samples 90 to 1800 μg/mL, p > 0.05
Description: A series of samples with concentration range from 90 μg/mL (corresponding to 69.28 μM and 93.26 μM for [sequence] and [sequence], respectively) to 1800μg/mL were used in stability analysis.
The incubated temperature for peptide solutions was set as 20, 40, 60, and 80 °C, respectively. DPPH radical scavenging activities and ACE inhibitory activities of the peptide solutions were measured as the above description.

Row | Sequence | ACE-Inhibitory Activity (%) [1] | EC50 [1] | α-Amylase Inhibitory Activity (%) [2] | EC50 [2] | EC50 [3] | number of fluorescent spots (FS) compared with negative control (MTZ without peptides) ([4]; low concentration) | effect of thermal treatment on EC50 values of DPPH radical scavenging and ACE inhibitory activities [5] | number of fluorescent spots (FS) compared to the control group (no MTZ or peptides) ([4]; high concentration)
1 | YIAEDAER [VM-P7, Tyr-Ile-Ala-Glu-Asp-Ala-Glu-Arg] | 74.95 ± 1.24% | 236 µM | 53.85 ± 0.92% | 942 µM | 823 µM | no significant difference | have thermal and gastrointestinal stability | 
2 | YSQLENEFDR [M-P6, Tyr-Ser-Gln-Leu-Glu-Asn-Glu-Phe-Asp-Arg] | 84.81 ± 0.35% | 75.6 µM | 56.15 ± 1.64% | 692 µM | 589 µM |  | have thermal and gastrointestinal stability | more FS were detected
